Reference: patent US7396944B2, “Thiophene derivatives, their manufacture and use as pharmaceutical agents” (Hoffmann-La Roche Inc., priority 2004, dated 2008)
Read-outs that look alike come from different tables or passages of the source.

Experiments:
[1] = test system: HT-29 cells (human colon carcinoma cell line); test: MTT assay on HT-29 human colon carcinoma cell line; assay type: cell-based; conditions: MTT assay after 5 days, read-out: IC90 HT29
Description: To show the activity of the compounds according to this invention, their effects on a human colon carcinoma cell line was evaluated using a standard MTT-assay. MTT (3-(4,5-dimethylthiazol-2-yl)-2,5-diphenyl tetrazolium bromide) is widely used for the quantitative determination of cytotoxic effects or in vitro chemosensitivity of tumor cells. The assay is based on the cleavage of the yellow tetrazolium salt (MTT) to purple formazan crystals by metabolic active cells. For details, see Rubinstein, L. V., et al., J. Natl. Cancer Inst. 82 (1990) 1113-1118.
We proceeded as follows: HT-29 cells (human colon carcinoma cell line, ATCC-No. HTB-38) were cultivated in RPMI 1640 medium with GlutaMAX™ I (Invitrogen, Cat-No. 61870-010), 2.5% fetal calf serum (FCS, Sigma Cat-No. F4135 (FBS)), 2 mM glutamine, 100 units/ml penicillin, 100 μg/ml streptomycin (=Pen/Strep from Invitrogen Cat. No. 15140). For the assay the cells were seeded in 384 well plates, 900 cells per well, in the same medium. At the next day, the compounds (dissolved 10 mM in DMSO) were added in various concentrations ranging from 30 μM to 1.5 nM. After 5 days, the MTT assay was done mainly according to the instructions of the manufacturer (Cell proliferation kit I, MTT, from Roche Molecular Biochemicals). In brief: MTT labeling reagent was added to a final concentration of 0.5 mg/ml, added and incubated for 4 hrs at 37° C., 5% CO2. During this incubation time purple formazan crystals are formed. After addition of the solubilization solution (20% Sodium Dodecyl Sulfate (SDS) in 0.02 M HCl) the plates were incubated overnight at 37° C., 5% CO2. After careful mixing, the plates were measured in Victor 2 (scanning multiwell spectrophotometer, Wallac) at 550 nm.
A decrease in number of living cells results in a decrease in the total metabolic activity in the sample. The decrease directly correlates to the amount of purple colour resulting from the solubilization of the purple formazan crystals. Determination of IC90 was done using XL-fit (XLfit software (ID Business Solution Ltd., Guilford, Surrey, UK)).

recombinant HDAC-1 = target: T1, recombinant HDAC-1 (Homo sapiens, UniProt Q13547); test: HDAC biochemical quench assay; conditions: recombinant HDAC-1 purified from HEK 293 cells, histone H4 peptide substrate 1 μM, 90 min
T1 construct: made in house; host or cells: HEK 293 cells (ATCC-No. CRL 1573)
T1 sequence (Q13547 whole entry, species assumed): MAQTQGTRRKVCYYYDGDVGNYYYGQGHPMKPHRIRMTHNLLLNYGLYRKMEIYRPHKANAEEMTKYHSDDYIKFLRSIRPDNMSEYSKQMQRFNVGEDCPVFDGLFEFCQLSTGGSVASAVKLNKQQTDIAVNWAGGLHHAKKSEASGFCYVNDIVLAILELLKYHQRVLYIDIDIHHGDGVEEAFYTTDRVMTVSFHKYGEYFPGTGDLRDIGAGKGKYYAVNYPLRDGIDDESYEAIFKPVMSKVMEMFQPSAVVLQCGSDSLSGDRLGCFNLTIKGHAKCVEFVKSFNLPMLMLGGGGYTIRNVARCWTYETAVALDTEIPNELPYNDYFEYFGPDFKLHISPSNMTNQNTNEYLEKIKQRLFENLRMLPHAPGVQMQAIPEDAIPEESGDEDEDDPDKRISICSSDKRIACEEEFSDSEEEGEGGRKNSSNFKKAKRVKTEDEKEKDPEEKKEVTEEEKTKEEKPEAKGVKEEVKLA
From the text: The function of histone deacetylase (HDAC) is the deacetylation of lysines in e.g. histone H4. A peptide of 17 amino acids derived from histone H4 was labeled with tetramethylrhodamine (TAMRA, fluorophore, Invitrogen) at the C-terminus and QSY-7™ (quencher dye, Invitrogen) at the N-terminus and was used as a substrate (TAMRA-first 17 aa of histone H4-QSY7). Following deacetylation by HDAC, the enzyme Lys C is able to cleave the peptide after lysine. […] Inhibition of HDAC by compounds results in low signals because Lys C could not cleave the substrate and the quench effect persists.
For dose response curves, 10 concentrations were diluted 1:3 starting at 30 μM. 10 μl compound dilution were put into each well of a 384 well plate. 10 μl HDAC were added (recombinant HDAC-1 purified from HEK 293 cells (human embryonic kidney cell line transformed by Adenovirus 5 fragments, ATCC-No. CRL 1573); enzyme activity has to be assessed for each preparation). 10 μl peptide substrate was added (1 μM final concentration, derived from 1 mM stock solution diluted 1:1000 in test buffer). After 90 min incubation at room temperature, the reaction was stopped by addition of 20 μl test buffer including 3 μg/ml Lys C and 0.075% Sodium Dodecyl Sulfate (SDS). After overnight incubation the fluorescence signal of TAMRA was measured (Victor 2 from Wallac, absorption 544 nm, emission 590 nm). The O.D. of DMSO (dimethylsulfoxide)-treated control wells is 100%, the % inhibition of compound treated wells is calculated in relation to 100%. Based on 10 concentrations an IC50 curve is generated by using XLfit3 (XLfit software (ID Business Solution Ltd., Guilford, Surrey, UK)).
Test buffer used: a mixture of 10 mM 4-(2-hydroxyethyl)-1-piperazineethanesulfonic acid (HEPES) pH8, 10 mM NaCl, 10% Glycerol, 0.005% Triton X100™, 0.1 mM ethylenediaminetetraacetic acid (EDTA), 0.1 mM Tris(2-carboxyethyl)phosphine (TCEP). Used plates: 384 well plates (black, Greiner, 781077).

Row | Structure (SMILES) | IC90 ([1]; Homo sapiens, 120 h) [nM] | IC50 (recombinant HDAC-1) [nM] | IC90 [1] [nM]
1 | CC(NC(=O)c1ccc(C(=O)NO)s1)c1cccc(-c2ccc(F)cc2)c1 (stereo not drawn) [Example 2-8, Thiophene-2,5-dicarboxylic acid 2-{[1-(4′-fluoro-biphenyl-3-yl)-ethyl]-amide} 5-hydroxyamide] | 100 to 500 | 2.52 | 
2 | CC(NC(=O)c1ccc(C(=O)NO)s1)c1ccc(-c2ccc(N(C)C)cc2)cc1 (stereo not drawn) [Example 1-2, Thiophene-2,5-dicarboxylic acid 2-{[1-(4′-dimethylamino-biphenyl-4-yl)-ethyl]-amide} 5-hydroxyamide] |  | 3 to 6 | 
3 | CC(NC(=O)c1ccc(C(=O)NO)s1)c1cccc(-c2cn[nH]c2)c1 (stereo not drawn) [Example 2-18, Thiophene-2,5-dicarboxylic acid 2-hydroxyamide 5-({1-[3-(1H-pyrazol-4-yl)-phenyl]-ethyl}-amide)] |  | < 3 | 
4 | CC(NC(=O)c1ccc(C(=O)NO)s1)c1ccccc1 (stereo not drawn) [Reference compound, reference compound] | 1120 | 3.12 | 
5 | CC(NC(=O)c1ccc(C(=O)NO)s1)c1cccc(-c2cc3ccccc3s2)c1 (stereo not drawn) [Example 2-14, Thiophene-2,5-dicarboxylic acid 2-{[1-(3-benzo[b]thiophen-2-yl-phenyl)-ethyl]-amide} 5-hydroxyamide] |  |  | 70

More lines, now with the values ahead:

Row | IC90 ([1]; Homo sapiens, 120 h) [nM] | IC50 (recombinant HDAC-1) [nM] | IC90 [1] [nM] | Structure (SMILES)
6 |  | 3 to 6 |  | C[C@@H](NC(=O)c1ccc(C(=O)NO)s1)c1ccc(N2CCOCC2)cc1 [Example 4-1, (R)-Thiophene-2,5-dicarboxylic acid 2-hydroxyamide 5-{[1-(4-morpholin-4-yl-phenyl)-ethyl]-amide}]
7 |  | < 3 |  | CC(NC(=O)c1ccc(C(=O)NO)s1)c1ccc(N2CCCCC2)cc1 (stereo not drawn) [Example 4-3, Thiophene-2,5-dicarboxylic acid 2-hydroxyamide 5-{[1-(4-piperidin-1-yl-phenyl)-ethyl]-amide}]
8 |  |  | 110 | COc1ccccc1-c1ccc(C(C)NC(=O)c2ccc(C(=O)NO)s2)s1 (stereo not drawn) [Example 3-1, Thiophene-2,5-dicarboxylic acid 2-hydroxyamide 5-({1-[5-(2-methoxy-phenyl)-thiophen-2-yl]-ethyl}-amide)]
9 |  | 3 to 6 |  | CC(NC(=O)c1ccc(C(=O)NO)s1)c1ccc(-c2cccc(F)c2)s1 (stereo not drawn) [Example 3-9, Thiophene-2,5-dicarboxylic acid 2-({1-[5-(3-fluoro-phenyl)-thiophen-2-yl]-ethyl}-amide) 5-hydroxyamide]
10 |  | 4.11 |  | CC(NC(=O)c1ccc(C(=O)NO)s1)c1ccc(-c2ccccc2F)s1 (stereo not drawn) [Example 3-12, Thiophene-2,5-dicarboxylic acid 2-({1-[5-(2-fluoro-phenyl)-thiophen-2-yl]-ethyl}-amide) 5-hydroxyamide]
